Assay results taken from ChEMBL document CHEMBL1201862, “PubChem BioAssay data set” (2004).
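Grown in 96-well plates, cells were treated for 48 hours with each compound at five concentrations. Insufficient inhibition: endpoint recorded as highest concentration tested. GI50 marks 50% less growth.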 Activity calls are given as the source filed them. Rule as the data show it: active = GI50 up to about 1.1 µM and inactive = higher.

What was measured:
Experiment in all cases: NCI tumour cell line growth inhibition, 48 h
[1] = tested on: HOP-62
[2] = tested on: K562
[3] = tested on: ACHN
[4] = tested on: OVCAR-5
[5] = tested on: Hs-578T
[6] = tested on: TK-10
[7] = tested on: MDA-N
[8] = tested on: A498
[9] = tested on: NCI-H522
[10] = tested on: NCI-H23
[11] = tested on: MDA-MB-231
[12] = tested on: MOLT-4
[13] = tested on: HCT-116
[14] = tested on: HT-29
[15] = tested on: SW-620
[16] = tested on: UACC-257
[17] = tested on: OVCAR-4
[18] = tested on: KM12
[19] = tested on: NCI-H226
[20] = tested on: M14
[21] = tested on: UACC-62
[22] = tested on: CAKI-1
[23] = tested on: SK-OV-3
[24] = tested on: MCF7
[25] = tested on: CCRF-CEM
[26] = tested on: SK-MEL-5
[27] = tested on: SF-295
[28] = tested on: SR
[29] = tested on: SF-268
[30] = tested on: SF-539
[31] = tested on: SN12C
[32] = tested on: Malme-3M
[33] = tested on: UO-31
[34] = tested on: HCT-15
[35] = tested on: NCI/ADR-RES
[36] = tested on: SK-MEL-2
[37] = tested on: EKVX
[38] = tested on: NCI-H460
[39] = tested on: HL-60
[40] = tested on: PC-3
[41] = tested on: IGROV-1
[42] = tested on: RXF 393
[43] = tested on: U-251
[44] = tested on: MDA-MB-435
[45] = tested on: OVCAR-3
[46] = tested on: DU-145
[47] = tested on: OVCAR-8
[48] = tested on: HOP-92
[49] = tested on: LOX IMVI
[50] = tested on: A549
[51] = tested on: HCC 2998
[52] = tested on: RPMI-8226
[53] = tested on: COLO 205
[54] = tested on: SK-MEL-28
[55] = tested on: 786-0
[56] = tested on: BT-549
[57] = tested on: SNB-75
[58] = tested on: T47D
[59] = tested on: SNB-19

SMILES: Cc1noc(NS(=O)(=O)c2ccc(NC(=O)c3ccc4nc5ccccc5c(Nc5ccc(S(=O)(=O)Nc6onc(C)c6C)cc5)c4c3)cc2)c1C
- GI50 [1]: > 100 µM (inactive)
- GI50 [2]: 25.5 µM (inactive)
- GI50 [3]: > 100 µM (inactive)
- GI50 [4]: > 100 µM (inactive)
- GI50 [5]: > 100 µM (inactive)
- GI50 [6]: > 100 µM (inactive)
- GI50 [7]: > 100 µM (inactive)
- GI50 [8]: > 100 µM (inactive)
- GI50 [9]: 52.1 µM (inactive)
- GI50 [10]: > 100 µM (inactive)
- GI50 [11]: 22.1 µM (inactive)
- GI50 [12]: 80.5 µM (inactive)
- GI50 [13]: > 100 µM (inactive)
- GI50 [14]: 73.3 µM (inactive)
- GI50 [15]: 97.7 µM (inactive)
- GI50 [16]: > 100 µM (inactive)
- GI50 [17]: > 100 µM (inactive)
- GI50 [18]: > 100 µM (inactive)
- GI50 [19]: > 100 µM (inactive)
- GI50 [20]: > 100 µM (inactive)
- GI50 [21]: > 100 µM (inactive)
- GI50 [22]: > 100 µM (inactive)
- GI50 [23]: > 100 µM (inactive)
- GI50 [24]: 45.6 µM (inactive)
- GI50 [25]: 42.7 µM (inactive)
- GI50 [26]: 49.4 µM (inactive)
- GI50 [27]: > 100 µM (inactive)
- GI50 [28]: 42 µM (inactive)
- GI50 [29]: > 100 µM (inactive)
- GI50 [30]: > 100 µM (inactive)
- GI50 [31]: > 100 µM (inactive)
- GI50 [32]: > 100 µM (inactive)
- GI50 [33]: > 100 µM (inactive)
- GI50 [34]: 58.1 µM
- GI50 [35]: > 100 µM (inactive)
- GI50 [36]: > 100 µM (inactive)
- GI50 [37]: > 100 µM (inactive)
- GI50 [38]: 67.3 µM (inactive)
- GI50 [39]: 42.3 µM (inactive)
- GI50 [40]: > 100 µM (inactive)
- GI50 [41]: > 100 µM (inactive)
- GI50 [42]: 40.3 µM (inactive)
- GI50 [43]: > 100 µM (inactive)
- GI50 [44]: > 100 µM (inactive)
- GI50 [45]: 70.3 µM (inactive)
- GI50 [46]: > 100 µM (inactive)
- GI50 [47]: > 100 µM (inactive)
- GI50 [48]: > 100 µM (inactive)
- GI50 [49]: 21 µM (inactive)
- GI50 [50]: > 100 µM (inactive)
- GI50 [51]: > 100 µM (inactive)
- GI50 [52]: 36.2 µM (inactive)
- GI50 [53]: > 100 µM (inactive)
- GI50 [54]: > 100 µM (inactive)
- GI50 [55]: 56.8 µM (inactive)
- GI50 [56]: 24.8 µM (inactive)
- GI50 [57]: > 100 µM (inactive)
- GI50 [58]: 40.2 µM (inactive)
- GI50 [59]: > 100 µM (inactive)

SMILES: O=C1CC(CC(OCc2ccccc2)C(COCc2ccccc2)OCc2ccccc2)CC(=O)N1 (stereo not drawn)
- GI50 [1]: 39.8 µM (inactive)
- GI50 [2]: 33.7 µM (inactive)
- GI50 [3]: 30.3 µM (inactive)
- GI50 [4]: 44.2 µM (inactive)
- GI50 [5]: 44.2 µM (inactive)
- GI50 [7]: 30.1 µM (inactive)
- GI50 [8]: 30.3 µM (inactive)
- GI50 [9]: 23.7 µM (inactive)
- GI50 [10]: 43.1 µM (inactive)
- GI50 [11]: 50.2 µM (inactive)
- GI50 [12]: 24.3 µM (inactive)
- GI50 [13]: 23.6 µM (inactive)
- GI50 [14]: 24.7 µM (inactive)
- GI50 [15]: 50.6 µM (inactive)
- GI50 [16]: 27.4 µM (inactive)
- GI50 [17]: 38.4 µM (inactive)
- GI50 [18]: 37.9 µM (inactive)
- GI50 [19]: 44.1 µM (inactive)
- GI50 [20]: 39.4 µM (inactive)
- GI50 [22]: 19.7 µM (inactive)
- GI50 [24]: 33.1 µM (inactive)
- GI50 [25]: 37.1 µM (inactive)
- GI50 [26]: 15.4 µM (inactive)
- GI50 [27]: 34.9 µM (inactive)
- GI50 [28]: 34.3 µM (inactive)
- GI50 [29]: 58.1 µM (inactive)
- GI50 [30]: 60.3 µM (inactive)
- GI50 [31]: 44.6 µM (inactive)
- GI50 [32]: 19.9 µM (inactive)
- GI50 [33]: 16 µM (inactive)
- GI50 [34]: 31.9 µM
- GI50 [35]: 24.7 µM (inactive)
- GI50 [37]: 19.7 µM (inactive)
- GI50 [38]: 32.4 µM (inactive)
- GI50 [39]: 28 µM (inactive)
- GI50 [40]: 24.7 µM (inactive)
- GI50 [41]: 70.5 µM (inactive)
- GI50 [42]: 30.1 µM (inactive)
- GI50 [43]: 32.5 µM (inactive)
- GI50 [44]: 29.6 µM (inactive)
- GI50 [45]: 37.4 µM (inactive)
- GI50 [46]: 69.3 µM (inactive)
- GI50 [47]: 31.9 µM (inactive)
- GI50 [48]: 39.2 µM (inactive)
- GI50 [49]: 34.3 µM (inactive)
- GI50 [50]: 27.4 µM (inactive)
- GI50 [51]: 36.6 µM (inactive)
- GI50 [52]: 34.5 µM (inactive)
- GI50 [53]: 19.2 µM (inactive)
- GI50 [54]: 63.4 µM (inactive)
- GI50 [55]: 32.4 µM (inactive)
- GI50 [56]: 13 µM (inactive)
- GI50 [57]: 52.7 µM (inactive)
- GI50 [58]: 27.9 µM (inactive)
